Results from US20150038541A1, “COMPOSITION AND METHODS FOR CELL MODULATION” (APOSIGNAL BIOSCIENCE LLC, priority 2012, published 2015).
Read-outs that look alike come from different tables or passages of the source. Each block holds one molecule with its values, some of them ahead of it.

Assays:
HeLa cells [1] = test: MTS cell viability of HeLa cells treated with anticancer drug with or without AS-7 (48 hours); format: cell-based, human; conditions: for IC50: Homo sapiens, HeLa, 48 h, 48 hours, MTS, read-out: IC50 of bortezomib (loss of HeLa cell viability)
Description: HeLa cells were seeded in a 96 well tissue culture plate (2000 cells per well). The compounds, 10 μM AS-7 and bortezomib (BioVision, Inc., Milpitas, Calif.) at the concentrations indicated in FIG. 1, were added the following day. AS-7 was prepared according to the Ugi reaction by combination of the four components: isocyanide (III), m-cyanobenzaldehyde (IV), 2-benzoylbenzoic acid (V), and histamine (VI) in refluxing methanol (Ref. http://www.occhem.com/synthesis/2561 2.html). The Medicinal Chemistry unit of Southern Research Institute (2000 Ninth Avenue South Birmingham, Ala. 35205) was contracted by a fee for service agreement to synthesize AS-7.
After 48 hours, MTS (3-(4,5-dimethylthiazol-2-yl)-5-(3-carboxymethoxyphenyl)-2-(4-sulfophenyl)-2H-tetrazolium) was added and absorbance was measured at 490 nm. […] Values in FIG. 1 are relative to controls that contained only the vehicle in which the drugs were dissolved. Vehicle had no effect on cell viability. Error bars in FIG. 1 are not visible if they are smaller than the symbols. […]
(§1) HeLa cells were seeded in a 96 well tissue culture plate (2000 cells per well). The compounds, 10 μM AS-7 and bortezomib at the concentrations indicated in FIG. 9 were added the following day. After 48 hours, MTS was added and absorbance was measured at 490 nm. […] Values are relative to controls that contained only the vehicle in which the drugs were dissolved. Vehicle had no effect on cell viability.

ovarian A2780 cells = test: Crystal violet cell viability of ovarian A2780 cells, bortezomib with or without AS-7 (72 hours); format: cell-based, human; conditions: Homo sapiens, A2780, 72 h, 72 hours, crystal violet, read-out: IC50 of the cytotoxic effect of bortezomib towards ovarian A2780 cells
Description: Ovarian tumor-derived cell lines, IGROV and A2780, were seeded in a 96 well tissue culture plate (2000 cells per well). The compounds, 10 μM AS-7 and bortezomib (BioVision, Inc., Milpitas, Calif.) at the concentrations indicated in the figures, were added the following day. AS-7 was prepared as described in Example I above. […] Values are relative to cells that with the vehicle in which the drugs were dissolved. Vehicle had no effect on cell viability. Error bars in FIG. 6 and FIG. 7 are not shown if they are smaller than the symbols.

Melanoma A2620 cells = test: Crystal violet cell viability of melanoma A2620 cells, bortezomib with or without AS-7 (72 hours); format: cell-based, human; conditions: Homo sapiens, 72 h, read-out: IC50 of bortezomib (loss of cell viability)
Description: as §1, with “Melanoma A2620 cells” for “HeLa cells”, “FIG. 8” for “FIG. 9”, “day.” for “day. After 48 hours, MTS was added and absorbance was measured at 490 nm.”

T47D cells = test: MTS cell viability of breast cancer T47D cells, bortezomib with or without AS-7; format: cell-based, human; conditions: 48 hours, MTS
Description: (§2) Breast cancer derived cell lines, T47D and 159C, were seeded in a 96 well tissue culture plate (2000 cells per well). The significance of these two lines of breast cancer derived cell lines is that the T47D cells positive for three markers used to optimize the chemotherapeutic treatment, namely HER2 receptor, estrogen receptor, and progesterone receptor. By contrast to the T47D cells, the 159C cells are negative for the three markers. The compounds, 10 μM AS-7 and a range of bortezomib (BioVision, Inc., Milpitas, Calif.) concentrations were added the following day. After 48 hours, MTS was added and absorbance was measured at 490 nm.

159C cells = test: MTS cell viability of breast cancer 159C cells, bortezomib with or without AS-7; format: cell-based; conditions: 48 hours, MTS
Description: as §2

proteasome = test: Proteasome activity measured in lysates of treated cells; format: cell-based; conditions: bortezomib treated HeLa cells; data not shown
Text: (§3) The cytotoxic action of bortezomib is known to be mediated by proteasome inhibition and the induction of apoptosis.

caspase-3 = test: Caspase-3 activity measured in lysates of treated HeLa cells; format: cell-based; conditions: bortezomib treated HeLa cells; data not shown
Text: as §3

[2] = cited from earlier work
solid tumors = conditions: phase I and II clinical trials; single agent or in combination with several anticancer drugs; cited from earlier work
HeLa cells [3] = test: MTS cell viability of HeLa cells treated with anticancer drug with or without AS-7 (48 hours); format: cell-based, human; conditions: Homo sapiens, HeLa, 48 h, 48 hours, MTS, read-out: IC50 of carfilzomib (loss of HeLa cell viability)
HeLa cells [4] = test system: HeLa cells
Description: HeLa cells were treated with 10 micrograms/ml cycloheximide alone or together with a range of TNF-alpha concentrations from 2.5 to 20 nanograms per ml. Following treatment, the cells were fixed with 4% paraformaldehyde (4° C. for 30 minutes), stained for 30 minutes with 0.5% crystal violet in 10% ethanol, and washed extensively with water to remove dye that was not bound to the cells. Cell bound crystal violet was solubilized with 10% acetic acid and absorbance was measured at 590 nm to quantitate cell growth. The time course data for each cell line were fit by nonlinear regression analysis to the equation for exponential growth using GraphPad Prism software.

Molecule: CC(C)CC(C=CS(C)(=O)=O)NC(=O)C(CC(C)C)NC(=O)C(CC(C)C)NC(=O)Cc1cc(I)c(O)c([N+](=O)[O-])c1 (stereo not drawn) [NLVS, 4-hydroxy-5-iodo-3-nitrophenylacetyl-Leu-Leu-leucinal-vinyl sulfone, reference compound]
HeLa cell viability at NLVS concentrations that by themselves had little effect (HeLa cells [1]; in the presence of 10 μM AS-7): complete loss of viability

IC50 (HeLa cells [1]; in the absence of AS-7): ~8.8 nM | IC50 (HeLa cells [1]; in the presence of 10 μM AS-7): ~2.5 nM | IC50 (Melanoma A2620 cells; in the absence of AS-7, 72 hours): ~7.3 nM | IC50 (Melanoma A2620 cells; in the presence of 10 μM AS-7, 72 hours): ~2.4 nM
Molecule: CC(C)C[C@H](NC(=O)[C@H](Cc1ccccc1)NC(=O)c1cnccn1)B(O)O [bortezomib]
IC50 (ovarian A2780 cells; in the absence of AS-7): ~12.9 nM | IC50 (ovarian A2780 cells; in the presence of 10 μM AS-7): ~4.2 nM | sensitivity to the cytotoxic action of bortezomib by itself (T47D cells): highly sensitive | sensitivity to the cytotoxic action of bortezomib by itself (159C cells): highly sensitive | proteasome activity in cell lysates (proteasome): markedly inhibited | caspase-3 activity in cell lysates (caspase-3): increased | median time to improvement from the neurotoxicity ([2]; after discontinuation of bortezomib treatment): three | patients with Grades 1 and 2 peripheral neuropathy ([2]; patients with newly diagnosed disease under bortezomib therapy): ≤ 33% | patients with grades 3 and 4 neurotoxicity ([2]; patients with newly diagnosed disease): up to 18% | patients with Grades 1 and 2 peripheral neuropathy ([2]; patients with recurrent disease under bortezomib therapy): up to 75% | patients with grades 3 and 4 neurotoxicity ([2]; patients with recurrent disease): up to 30% | activity against solid tumors (solid tumors): quite limited activity

IC50 (HeLa cells [3]; in the absence of AS-7): ~8.5 nM | IC50 (HeLa cells [3]; in the presence of 10 μM AS-7): ~2.5 nM
Molecule: CC(C)C[C@H](NC(=O)[C@H](CCc1ccccc1)NC(=O)CN1CCOCC1)C(=O)N[C@@H](Cc1ccccc1)C(=O)N[C@@H](CC(C)C)C(=O)[C@@]1(C)CO1 [carfilzomib]

Molecule: C[C@@H]1C[C@@H]([C@H](O)CC2CC(=O)NC(=O)C2)C(=O)[C@@H](C)C1 [cycloheximide, reference compound]
effect on HeLa cell proliferation and cell death (HeLa cells [4]; 10 micrograms/ml cycloheximide alone, 24 hour interval, absence or presence of AS-7): cytostatic, but not cytotoxic

Molecule: TNF-alpha
cytotoxicity to HeLa cells (HeLa cells [4]; TNF-alpha in combination with cycloheximide, apparent within six hours): rapidly cytotoxic
